In assay [1] the test system is fibrosis-related factors (Acta2, Col1a1, Tgfb1). The assay can be described thus: CCl4 acute liver injury model in mice: Q-PCR of fibrosis-related factors in liver. The settings on record: liver mRNA. The class given is in vivo, C57BL/6 mice. Here is the method:
They were acclimated for 7 days before use in experiments. • Experimental Methods: Establishment of Acute Liver Injury Model in Mice and Group-Specific Drug Administration • Mice were randomly assigned to groups. One group was arbitrarily designated as the normal group, while the remaining groups served as model group, Compound 1 group, Hydrochloride 20 group, Fumarate 21 group, and Silibinin group, with 6 mice per group. Except for the normal group receiving 10 mL olive oil/kg via injection, all other mice received 0.5 mL CCl4 + 9.5 mL olive oil/kg body weight via intraperitoneal injection, maintaining a CCl4 to olive oil ratio of 1:19. Starting from day 1 of modeling, Compound 1, Hydrochloride 20, and Fumarate 21 were administered orally for 3 consecutive days. […] The blood was allowed to stand at room temperature for 2 hours, then centrifuged at 3000 rpm for 20 minutes. Serum was aspirated, aliquoted, and stored at -70 °C for future use. After blood collection, euthanize mice by cervical dislocation. Perform laparotomy to remove the liver. Rinse twice with pre-chilled PBS. Excise the left hepatic lobe tissue. […] Store remaining tissue at -70 °C for future use. • Serum AST and ALT Assay: Use 10 µL of each sample for testing. Determine mouse serum AST and ALT levels according to the operating manual. Measure absorbance at 510 nm using an enzyme-linked immunosorbent assay (ELISA) reader. Calculate sample concentration (U/L) based on the standard curve.
Q-PCR Analysis: Tissue total RNA extraction, cDNA synthesis, and PCR amplification methods are identical to Example 4. Additional primer information is as follows:
Data Statistics: All data are expressed as means ± standard error of the mean (S.E.M.). Differences were analyzed for significance using analysis of variance (ANOVA). For groups showing significant differences in ANOVA, one-way ANOVA followed by Dunnett's test was performed to compare intergroup differences.

Another assay relates to MDSCs. The assay can be described thus: Inhibition of MDSC chemotaxis (Transwell, Hepa1-6 tumor-conditioned medium). The class given is cell-based, mice. As to conditions: 12 h treatment, 24 h Transwell. Here is the method: Hepa1-6 mouse hepatocellular carcinoma cells were uniformly seeded into 6-well plates. After cells reached confluence, supernatant was aspirated, and 1-1.5 mL fresh medium was added to each well. Following 24 h culture, supernatant was collected, centrifuged at 1600 rpm for 5 min, aspirated, and filtered through a 0.22 µm membrane to obtain tumor-conditioned medium for subsequent use. Euthanize mice by cervical dislocation and immerse in 75% ethanol solution for 5 min. Under sterile conditions, remove the tibia, cut both ends of the bone, and aspirate the bone marrow into a 1 mL syringe. Repeat flushing into a 15 mL centrifuge tube. Centrifuge at 1600 rpm for 5 min to collect bone marrow cells. Wash twice with 1×PBS. Resuspend cells in complete RPMI 1640 medium containing cytokines GM-CSF (10 ng/mL) and IL-4 (10 ng/mL) to stimulate differentiation into MDSCs. Count cells, adjust density to 1×10^6 cells/mL, and uniformly seed into 24-well plates at 300 µL per well. […] Centrifuge at 1600 rpm for 5 min, remove supernatant, resuspend cells in 300 µL fresh medium, and place into Transwell chambers. Add 600 µL normal medium (control group) or tumor-conditioned medium (model group) to the lower chamber. Co-culture for 24 h.

The subject of assay [2] is inflammatory cytokines (TNF, IL-6, IL-1). The assay can be described thus: LPS mouse sepsis model: Q-PCR of inflammatory factor mRNA in lung, liver and kidney. The assay is classed as in vivo, C57BL/6 mice. As to conditions: sepsis mice. The source says: Gently pipette to mix the above reagents. The reaction conditions are as follows:
Detailed information is as follows:

In another assay the test system is lupus nephritis. The assay can be described thus: Lupus nephritis MRL/lpr mice: urinary protein, Scr, BUN, urinary Kim-1 and β-MG. The settings on record: oral 30 mg/kg, 8 weeks. Further details: Scr / BUN / Kim-1 / β-MG: unit not given here. The assay is classed as in vivo. Here is the method: RT Supermix for qPCR, Nanjing Vazyme Biotech Co., Ltd.; Urea Colorimetric Test Kit, Creatinine Colorimetric Test Kit, Nanjing Jiancheng Biotechnology Co., Ltd.; Urinary Kim-1 and β-MG Content ELISA Kits, Abcam. • Experimental animals: MRL/MpJ and MRL/lpr mice, female, 10 weeks old, purchased from GemPharmatech LLC. Production license number: SCXK(Su)2023-0009. […] They were acclimated for 7 days before use in experiments. […] Oral administration was performed continuously for 8 weeks. […] Aspirate the serum, aliquot it, and store at -70 °C for future use. After blood collection, euthanize mice by cervical dislocation. Open the abdominal cavity, remove kidneys, and dissect out perirenal fat and capsules. […] Store remaining tissues at -70 °C for future use. Serum Creatinine (Scr) and Blood Urea Nitrogen (BUN) Assay: […] Samples were added sequentially strictly according to the kit instructions, incubated at 37 °C, and measured for absorbance values using an enzyme-linked immunosorbent assay (ELISA) reader. The concentration levels of each indicator were calculated based on the standard curve.

The subject of the next assay is diabetic nephropathy. The assay can be described thus: Diabetic nephropathy (STZ + HFD, DKD) mice: Scr and BUN. As to conditions: serum, 8 weeks. The assay is classed as in vivo, C57/BL6J mice. Here is the method: Production license number: SCXK(Su)2023-0009. […] Animals were acclimated for 7 days before use in experiments.
Administer streptozotocin (STZ, 50 mg/kg) via intraperitoneal injection for 5 consecutive days. After 72 hours, select mice with fasting blood glucose levels exceeding 16.7 mmol/L as model mice. […] Model mice were fed a high-fat diet (HFD) providing 60% of energy from fat for 8 weeks. After 8 weeks, gavage administration commenced.
Specimen Collection: One hour after the last drug administration, enucleate the eyeball to collect blood. Allow blood to stand at room temperature for 2 hours, then centrifuge at 3000 rpm for 20 minutes. Aspirate the serum, aliquot it, and store at -70 °C for future use. After blood collection, euthanize the mice by cervical dislocation. Open the abdominal cavity, remove the kidneys, and dissect away the perirenal fat and capsule. Store the tissue at -70 °C for future use.
Serum Creatinine (Scr) and Blood Urea Nitrogen (BUN) Assay: For each sample, 10 µL of serum was used for creatinine and urea level detection. Samples were added sequentially strictly following the kit instructions. After incubation at 37 °C, absorbance values were measured using an enzyme-linked immunosorbent assay (ELISA) reader. The concentration levels of each indicator were calculated based on the standard curve.

The mark [3] stands for this setting: kidney mRNA (relative, Gapdh), oral gavage 0.1 mg/kg.
Where [4] appears, read: kidney mRNA (relative, Gapdh), oral gavage 1 mg/kg.
Where [5] appears, read: liver mRNA (relative, Gapdh), oral gavage 0.1 mg/kg.
Where [6] appears, read: liver mRNA (relative, Gapdh), oral gavage 1 mg/kg.
[7] abbreviates: lung mRNA (relative, Gapdh), oral gavage 0.1 mg/kg.
The mark [8] stands for this setting: lung mRNA (relative, Gapdh), oral gavage 1 mg/kg.

For the molecule `C=C1C(=O)O[C@@H]2[C@@H]3[C@]4(CC[C@@]3(C)O)C[C@]4(C)CC[C@@H]12` [compound 1], the Acta2 in assay [1] (oral 0.1 mg/kg) was 3.82±0.88; in assay [1] (oral 1 mg/kg) it was 2.34±0.16. Further, the results for the Col1a1 in assay [1] (oral 0.1 mg/kg) and in assay [1] (oral 1 mg/kg) were 2.28±0.80 and 1.40±0.31, respectively. Further, the results for the Tgfb1 in assay [1] (oral 0.1 mg/kg) and in assay [1] (oral 1 mg/kg) were 1.39±0.58 and 1.08±0.21, respectively. Also, the “Suppression Rate (%)” value in the assay with MDSCs (1 µM) amounted to 42.3%; with MDSCs (10 µM), 83.3%. In addition, the Il1 in assay [2] (setting [3]) was determined as 7.01±0.33; in assay [2] (setting [4]), 3.05±0.58; in assay [2] (setting [5]), 11.32±2.66; in assay [2] (setting [6]), 4.84±0.60; in assay [2] (setting [7]), 15.29±0.88; in assay [2] (setting [8]) it was 7.89±1.44. Besides, the Il6 in assay [2] (setting [3]) is 7.55±2.08; in assay [2] (setting [4]), 3.11±0.29; in assay [2] (setting [5]) it was 8.50±3.02; in assay [2] (setting [6]), 5.10±0.82; in assay [2] (setting [7]) it was 19.17±0.51; in assay [2] (setting [8]), 11.67±1.84. Moreover, the Tnf is reported as 7.17±1.22 in assay [2] (setting [3]); 6.59±0.18 in assay [2] (setting [4]); 8.68 ± 2.12 in assay [2] (setting [5]); 7.01±0.92 in assay [2] (setting [6]); 8.58 ± 0.85 in assay [2] (setting [7]); 7.99±1.36 in assay [2] (setting [8]).
For the molecule `CN(C)C[C@@H]1C(=O)O[C@H]2[C@H]1CC[C@@]1(C)C[C@]13CC[C@@](C)(O)[C@H]23` [compound 20], in the assay with lupus nephritis, the “24-hour urine protein level” value was 0.58±0.03. For the same molecule, the BUN in the assay on lupus nephritis (serum) is on record as 9.55±0.75; in the assay on diabetic nephropathy (gavage 1 mg/kg), 37.01±2.50; in the assay on diabetic nephropathy (gavage 10 mg/kg), 19.71±1.22. Besides, the Scr with lupus nephritis (serum) was determined as 18.55±1.08; in the assay with diabetic nephropathy (gavage 1 mg/kg), 17.72±1.658; in the assay with diabetic nephropathy (gavage 10 mg/kg) it was 12.96±0.78. In the assay with lupus nephritis (urine), the Kim-1 worked out at 0.41±0.02. The molecule further came in with a β-MG in the assay on lupus nephritis (urine) of 13.55±0.14.

Source of the values: EP4813381A1, “PHARMACEUTICAL USE OF GUAIANE SESQUITERPENE DERIVATIVE” (Nanjing University Of Chinese Medicine, priority 2023, dated 2025).
